≈ marks a conversion by molar mass, not a printed value. Calls of active or inactive are those of the source. The calls are words filed in the database; no cut-off is given here.
How the values were obtained:
[1] = Toxicity in C57BL/6 mouse assessed as change in liver morphology by H and E staining based histological analysis; format: tissue-based; conditions: in vivo
Mus musculus [2] = assay: Anti-NASH activity in high-fat diet induced nonalcoholic steatohepatitis C57BL/6 mouse assessed as reduction in liver collagen fiber content at 80 mg/kg, po administered for 1 month by sirius red staining based assay; format: functional, organism-based; conditions: time 1.0 months
HepG2 [3] = assay: Cytotoxicity against human HepG2 cells upto 5 uM incubated for 24 hrs by MTT assay; format: toxicity, cell-based; conditions: hepg2, 24 h
HepG2 [4] = assay: Effect on COP1 in human HepG2 cells assessed as change in c-Jun level at 10 to 500 nM by RT-qPCR analysis; format: functional, cell-based; conditions: dose 10-500 nM
Mus musculus [5] = assay: Upregulation of COP1 expression level in C57BL/6 mouse adipose tissue at 80 mg/kg, po administered for 7 days; format: functional, organism-based; conditions: time 7.0 day
[6] = Metabolic stability in mouse liver microsomes assessed as hepatic blood flow; format: ADME, Microsome; conditions: read-out: QH
Mus musculus [7] = assay: Anti-NASH activity in high-fat diet induced nonalcoholic steatohepatitis C57BL/6 mouse assessed as reduction in accumulation of fat droplets at 80 mg/kg, po administered for 1 month by H and E staining based assay; format: functional, organism-based; conditions: time 1.0 months
Mus musculus [8] = assay: Anti-NASH activity in high-fat diet induced nonalcoholic steatohepatitis C57BL/6 mouse assessed as appearance of darker liver at 80 mg/kg, po administered for 1 month; format: functional, organism-based; conditions: time 1.0 months
[9] = Toxicity in C57BL/6 mouse assessed as change in kidney tubular structure; format: tissue-based; conditions: in vivo
Mus musculus [10] = assay: Upregulation of ATGL expression level in C57BL/6 mouse liver at 80 mg/kg, po administered for 7 days; format: functional, organism-based; conditions: time 7.0 day
[11] = Metabolic stability in mouse liver microsomes assessed as intrinsic clearance per mg of protein; format: ADME, Microsome; conditions: read-out: CLH
[12] = Toxicity in C57BL/6 mouse assessed as inflammatory infiltration; conditions: in vivo
HepG2 [13] = assay: Effect on ATGL mRNA level in human HepG2 cells at 50 to 5000 nM after 24 hrs by RT-qPCR analysis; format: functional, cell-based; conditions: dose 50-5000 nM
[14] = Aqueous solubility of compound at pH 7.4; format: physicochemical
[15] = molecular target: E3 ubiquitin-protein ligase COP1 (Homo sapiens) (UniProt Q8NHY2); assay: Inhibition of COP1 auto-ubiquitination in human HepG2 cells preincubated for 20 hrs followed by MG132 addition and measured after 4 hrs by immunoprecipitation method; format: cell-based; conditions: time 24.0 hrs
Sequence of E3 ubiquitin-protein ligase COP1 (Homo sapiens) (Q8NHY2 whole entry): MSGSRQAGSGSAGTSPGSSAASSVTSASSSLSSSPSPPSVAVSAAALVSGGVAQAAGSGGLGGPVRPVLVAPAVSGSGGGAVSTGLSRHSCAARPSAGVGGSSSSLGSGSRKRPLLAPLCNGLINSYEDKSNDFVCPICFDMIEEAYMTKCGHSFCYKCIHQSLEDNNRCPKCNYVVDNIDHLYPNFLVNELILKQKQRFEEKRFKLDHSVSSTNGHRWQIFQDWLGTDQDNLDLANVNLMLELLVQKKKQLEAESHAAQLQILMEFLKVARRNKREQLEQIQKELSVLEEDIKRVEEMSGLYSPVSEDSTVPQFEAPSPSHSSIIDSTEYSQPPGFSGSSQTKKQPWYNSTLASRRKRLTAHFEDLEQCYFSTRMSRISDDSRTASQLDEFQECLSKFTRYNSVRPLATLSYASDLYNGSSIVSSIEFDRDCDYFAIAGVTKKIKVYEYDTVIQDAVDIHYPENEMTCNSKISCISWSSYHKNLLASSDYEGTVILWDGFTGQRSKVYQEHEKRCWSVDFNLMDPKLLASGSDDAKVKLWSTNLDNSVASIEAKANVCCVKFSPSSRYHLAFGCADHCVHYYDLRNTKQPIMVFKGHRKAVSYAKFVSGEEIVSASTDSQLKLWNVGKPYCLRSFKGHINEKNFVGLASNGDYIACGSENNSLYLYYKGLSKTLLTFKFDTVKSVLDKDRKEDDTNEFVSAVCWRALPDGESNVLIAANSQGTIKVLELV

[16] = Stability in mouse plasma assessed as compound remaining after 2 hrs; format: ADME, cell-free; conditions: read-out: Stability
[17] = Metabolic stability in human liver microsomes assessed as intrinsic clearance per mg of protein; format: ADME, Microsome; conditions: read-out: CLH
COP1-AGTL (Homo sapiens) = COP1-AGTL (Homo sapiens) (UniProt Q96AD5+Q8NHY2); assay: Induction of COP1 to ATGL stabilization (unknown origin) expressed in HEK293-A cells assessed as reduction in ATGL ubiquitination incubated for 6 hrs by Western blotting analysis; format: cell-based
Sequence of COP1-AGTL (Homo sapiens) (Q8NHY2 whole entry, looked up, one chain of several): as the sequence (Q8NHY2 whole entry) above

[18] = Toxicity in C57BL/6 mouse assessed as change in kidney morphology by H and E staining based histological analysis; conditions: in vivo
[19] = molecular target: T1, Patatin-like phospholipase domain-containing protein 2 (Homo sapiens) (UniProt Q96AD5); assay: Inhibition of ATGL ubiquitination (unknown origin) expressed in HEK293-A cells incubated for 6 hrs by Western blotting analysis; format: cell-based
T1 sequence (whole entry): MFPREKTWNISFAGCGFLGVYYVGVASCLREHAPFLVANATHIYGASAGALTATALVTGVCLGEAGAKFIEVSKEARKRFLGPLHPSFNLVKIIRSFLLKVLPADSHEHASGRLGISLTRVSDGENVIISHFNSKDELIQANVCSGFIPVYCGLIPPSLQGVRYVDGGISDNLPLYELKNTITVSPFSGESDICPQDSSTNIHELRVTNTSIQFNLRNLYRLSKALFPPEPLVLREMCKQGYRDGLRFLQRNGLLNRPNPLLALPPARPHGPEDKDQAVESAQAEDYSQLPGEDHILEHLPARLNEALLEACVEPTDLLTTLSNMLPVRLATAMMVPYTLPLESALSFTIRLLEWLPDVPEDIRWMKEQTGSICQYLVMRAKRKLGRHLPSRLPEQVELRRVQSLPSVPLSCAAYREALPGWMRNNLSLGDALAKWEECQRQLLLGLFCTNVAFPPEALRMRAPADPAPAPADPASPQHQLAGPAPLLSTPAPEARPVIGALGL

Mus musculus [20] = assay: Upregulation of ATGL expression level in C57BL/6 mouse adipose tissue at 80 mg/kg, po administered for 7 days; format: functional, organism-based; conditions: time 7.0 day
Mus musculus [21] = assay: Upregulation of COP1 expression level in C57BL/6 mouse liver at 80 mg/kg, po administered for 7 days; format: functional, organism-based; conditions: time 7.0 day
Hepatocyte [22] = assay: Upregulation of ATGL protein level in mouse primary hepatocytes incubated for 24 hrs by Western blotting analysis; format: functional, cell-based; conditions: dose 10-500 nM
HepG2 [23] = assay: Effect on COP1 in human HepG2 cells assessed as change in p53 level at 10 to 500 nM by RT-qPCR analysis; format: functional, cell-based; conditions: dose 10-500 nM
HepG2 [24] = assay: Reduction in lipid droplets in human HepG2 cells at 100 nM incubated for 24 hrs by Hoechst 33342 staining based confocal microscopic analysis; format: functional, cell-based
[25] = Toxicity in C57BL/6 mouse assessed as change in lung morphology by H and E staining based histological analysis; format: tissue-based; conditions: in vivo
Mus musculus [26] = assay: Anti-NASH activity in high-fat diet induced nonalcoholic steatohepatitis C57BL/6 mouse assessed as reduction in liver size at 80 mg/kg, po administered for 1 month; format: functional, organism-based; conditions: time 1.0 months
[27] = Lipophilicity, logD of compound; format: physicochemical; conditions: octanol/water
Mus musculus [28] = assay: Anti-NASH activity in high-fat diet induced nonalcoholic steatohepatitis C57BL/6 mouse assessed as reduction in body weight at 80 mg/kg, po administered for 1 month; format: functional, organism-based; conditions: time 1.0 months
[29] = Metabolic stability in human liver microsomes assessed as half life; format: ADME, Microsome
[30] = molecular target: T1, Patatin-like phospholipase domain-containing protein 2 (Homo sapiens); assay: Inhibition of ATGL ubiquitination in human HepG2 cells preincubated for 20 hrs followed by MG132 addition and measured after 4 hrs by immunoprecipitation method; format: cell-based; conditions: time 24.0 hrs
Mus musculus [31] = organism: Mus musculus; assay: Upregulation of ATGL protein level in mouse primary adipose tissue incubated for 24 hrs by Western blotting analysis; format: functional, tissue-based; conditions: dose 100-1000 nM
[32] = Metabolic stability in mouse liver microsomes assessed as half life; format: ADME, Microsome
Mus musculus [33] = assay: Anti-NASH activity in high-fat diet induced nonalcoholic steatohepatitis C57BL/6 mouse assessed as reduction in liver triglyceride level at 80 mg/kg, po administered for 1 month; format: functional, organism-based; conditions: time 1.0 months
Hepatocyte [34] = assay: Reduction in lipid droplets in oleate induced mouse primary hepatocytes at 100 nM by BODIPY493/503 staining based confocal microscopic analysis; format: functional, cell-based
Mus musculus [35] = assay: Anti-NASH activity in high-fat diet induced nonalcoholic steatohepatitis C57BL/6 mouse assessed as reduction in liver weight at 80 mg/kg, po administered for 1 month; format: functional, organism-based; conditions: time 1.0 months
[36] = Metabolic stability in human liver microsomes assessed as hepatic blood flow; format: ADME, Microsome; conditions: read-out: QH
[37] = Stability in human plasma assessed as compound remaining after 2 hrs; format: ADME, cell-free; conditions: read-out: Stability
HepG2 [38] = assay: Reduction in lipid droplets in human HepG2 cells by […] staining based confocal microscopic analysis; format: functional, cell-based

SMILES | Activity [1] | Activity (Mus musculus [2]) | Activity (HepG2 [3]) | Activity (HepG2 [4]) | Activity (Mus musculus [5]) | hepatic extraction ratio [6] | Activity (Mus musculus [7]) | Activity (Mus musculus [8]) | Activity [9] | Activity (Mus musculus [10]) | microsomal CLint [11] [µL/min/mg] | Activity [12] | Activity (HepG2 [13]) | solubility [14] [µg/mL] | remaining at 2 h [16] [%] | microsomal CLint [17] [µL/min/mg] | Activity (COP1-AGTL (Homo sapiens)) | Activity [18] | inhibition [19] | Activity (Mus musculus [20]) | further results
COCCn1c(=O)c2cc(NC(=O)Nc3cccc(C(C)=O)c3)ccc2n(CCN2CCCCC2)c1=O | Non-Toxic | Active | Non-Toxic | inactive | inactive | 0.605 | Active | Active | Non-Toxic | Active | 56.2 | Non-Toxic | inactive | 116 (≈ 228 µM) | 103 | 28.3 | Active | Non-Toxic | Active | inactive | inhibition [15]: Active; Activity (Mus musculus [21]): Active; Activity (Hepatocyte [22]): Dose-Dependent Effect; Activity (HepG2 [23]): inactive; Activity (HepG2 [24]): Active; Activity [25]: Non-Toxic; Activity (Mus musculus [26]): Active; logD [27]: 2.78; Activity (Mus musculus [28]): Active; half-life [29]: 24.5 min; inhibition [30]: Active; Activity (Mus musculus [31]): inactive; half-life [32]: 12.3 min; Activity (Mus musculus [33]): Active; Activity (Hepatocyte [34]): Active; Activity (Mus musculus [35]): Active; hepatic extraction ratio [36]: 0.567; remaining at 2 h [37]: 110%; Activity (HepG2 [38]): Active
COCCn1cnc2ccc(NC(=O)Nc3cccc(C(C)=O)c3)cc2c1=O | Non-Toxic | Active | Non-Toxic | inactive | inactive | 0.181 | Active | Active | Non-Toxic | Active | 8.15 | Non-Toxic | inactive | 2.56 (≈ 6.73 µM) | 14.2 | 5.84 | Active | Non-Toxic | Active | inactive | Activity (Mus musculus [21]): Active; Activity (Hepatocyte [22]): Dose-Dependent Effect; Activity (HepG2 [23]): inactive; Activity [25]: Non-Toxic; Activity (Mus musculus [26]): Active; logD [27]: 2.38; Activity (Mus musculus [28]): Active; half-life [29]: 119 min; Activity (Mus musculus [31]): inactive; half-life [32]: 87 min; Activity (Mus musculus [33]): Active; Activity (Mus musculus [35]): Active; hepatic extraction ratio [36]: 0.213; remaining at 2 h [37]: 16.9%; Activity (HepG2 [38]): Active

— ChEMBL document CHEMBL5376004, “Discovery and Development of Quinazolinones and Quinazolinediones for Ameliorating Nonalcoholic Fatty Liver Disease (NAFLD) by Modulating COP1-ATGL Axis” (J Med Chem, 2023)
